Reference: patent US11028136B2, “Tumor antigen peptide” (Sapporo Medical University, priority 2014, dated 2021)

What was measured:
Assay type in all cases: cell-based
[1] = system: CaSki cell line; assay: Cell proliferation of siRNA-transfected cells; conditions: FIG. 14-1(b), 14-2
Experimental: (§1) MS751 and CaSki were each transfected with siRNAs for BORIS that had been designed to have the sequences shown in the table below in accordance with the protocol described in the Instructions by the manufacturer for the Lipofectamine RNAiMAX used. Cells were analyzed 48 hours after transfection. Trilencer-27 Universal Scrambled Negative Control siRNA (SR30004, Origene) was used as a negative control.

[2] = system: CaSki cell line; assay: Stemness gene expression of siRNA-transfected cells; conditions: FIG. 15
Experimental: as §1

[3] = system: CaSki; assay: Sphere formation capability of siRNA-transfected cells; conditions: FIG. 16-1(a)
Experimental: (§2) Sphere formation has been reported as being one of the indicators of cancer stem cell markers in cervical cancer. Therefore, a spheroid formation assay using a low adherent cell culture plate was carried out. Cervical cancer cell lines (CaSki, TCS, MS751, SKG-IIIb, ME-180, and SiHa) were cultured using a multi well plate having an ultra low adherent surface (Ultra Low Attachment 6-well plate, Corning). Adherent cultured cells were peeled off with a solution containing 0.25% trypsin in 2 mM EDTA, and were plated on each well at 10^3 cells/well. As a medium, one prepared by adding to a serum-free DMEM/F-12 medium 20 ng/mL of h-EGF (acquired from R&D systems), 10 ng/mL of b-FGF (acquired from R&D systems), 1% penicillin/streptomycin (acquired from GIBCO), 4 μg/mL of heparin, and a final concentration of 1% of N2 supplement (acquired from WAKO) was used, culturing was carried out under normal culturing conditions for 7 days or 14 days, and formation of spheroids of 100 μm or greater was confirmed for all of the cell lines (FIG. 1). […]
(§3) MS751 and CaSki were each transfected with siRNAs for BORIS that had been designed to have the sequences shown in the table below in accordance with the protocol described in the Instructions by the manufacturer for the Lipofectamine RNAiMAX used. Cells were analyzed 48 hours after transfection. […]

[4] = system: MS751; assay: as above; conditions: FIG. 16-1(b)
Experimental: as §2, §3

In the case of “rGrGrArArArUrArCrCrArCrGrArUrGrCrArArArUrUrUrCAT [siRNA2]”, the Cell proliferation [1] is reported as “slightly suppressed”, the Stemness gene suppression [2] is reported as “did not occur at all” and the Sphere formation capability [3] is reported as “markedly suppressed”. The Sphere formation capability [4] was “markedly suppressed”.
